# According to article PMC6799938, “Determinants of drug entry into the developing brain” (F1000Research, 2019):
# Like-named read-outs stand apart in the source and are kept apart here.
# Legend:
# [1] = Sprague Dawley, rat, in vivo
# [2] = Entry of "passive" markers into brain and CSF
# Method: (§1) Experimental procedure. In acute drug experiments, a single dose was injected that included traces of [ ^3H]-labelled drug (20µCi adults, 2µCi newborns). In chronic experiments, doses of unlabelled drug were given twice daily (09.00 and 17.00h) for four days before a final injection on the 5 ^th day identical to acute experiments. In passive marker experiments, all dosing was acute and contained only the [ ^3H]- or [ ^14C]-labelled compound (20µCi adults, 2µCi newborns).
# (§2) In all experiments involving postnatal animals, injections were intraperitoneal (i.p.). In pregnant animals for fetal drug entry studies, the final injection of the radiolabelled marker was given intravenously (i.v.), as the peritoneal cavity required opening prior to the sampling period to gain access to the fetuses. For passive markers (L-glucose, sucrose and glycerol), fetal animals were individually injected i.p. while still within the uterine horn. All experiments took place between 09.00 and 15.00h. All pregnancy studies were completed with a single treatment group on one day. Postnatal groups were conducted with a single treatment group on one day or with the chronic group completed prior to the acute group.
# (§3) Sample collection. Samples were collected 30 minutes after the final injection. This duration was chosen partly to limit any potential metabolism of the drugs and markers used but also to allow enough time for i.p. injected markers to reach the blood stream and, from there, to access the brain parenchyma across brain barriers, as well as to limit the CSF sink effect that could influence drug levels ( [Bito et al., 1966]). Thirty minutes is also within the half-life of these drugs ( [Adedoyin et al., 1987]; [Harrison & Gibaldi, 1976]; Lin & Levy, 1963). The other reason a 30-minute duration was chosen is that in the case of exposed fetal rat pups, it is difficult to maintain them in a reasonable physiological state for long periods due to deterioration of placental perfusion. Therefore, for comparative purposes, all studies were conducted at the same time.
# For adult and newborn (P4) experiments, animals were terminally anaesthetized using inhaled isofluorane (IsoFlo 100% w/w, Abbott Laboratories). Blood samples were collected from the right cardiac ventricle, CSF from the cisterna magna (Habgood et al., 1992) and cortical segments of brain tissue dorsal to the ventricle of the frontal/parietal lobes, as previously described ( [Koehn et al., 2019]). Blood and CSF sampling from the P4 animals was terminal and would thus not have affected the physiological state of the animals during the experiment.
# Sample preparation. Samples were processed immediately after collection. Blood was centrifuged at 7000rpm for five minutes and the plasma separated. CSF samples were examined microscopically for traces of red blood cells and discarded if contaminated (Habgood et al., 1992). In all experiments, the radioactivity in the injectate was also measured to confirm the uniformity of the injected material. All samples were weighed and transferred into scintillation vials. Soluene350 (0.5ml, PerkinElmer) was added to the brain samples. After being incubated at 36°C overnight to allow the tissue to solubilize, two drops of glacial acetic acid (Sigma) were added to neutralize the strongly alkaline Soluene350. All samples were then mixed with 5ml of scintillation fluid (Emulsifier-safe, PerkinElmer) before being transferred into the liquid scintillation counter (Tri-Carb 4910 TR, PerkinElmer) to count radioactivity disintegrations per minute (DPM) over five minutes each with luminescence correction on. Blank vials containing the same tissues without radioactivity were also counted alongside the samples to establish the level of background counts, which were always subtracted from the radioactivity counts of the corresponding experimental samples.
# BrainorCSFtransfer=BrainorCSFDPM/μl/plasmaDPM/μl×100%
# [3] = for Brain radioactivity level / CSF radioactivity level / Plasma radioactivity level: mean
# Method: Animals. Sprague Dawley rats were supplied by the University of Melbourne Biological Research Facility and housed in groups of 2–4 (adult) or full litters per cage (25cm x 35cm x 25cm on Breeders Choice paper bedding, made from 99% recycled paper; it is biodegradable with no added chemicals), on a 12 h light/dark cycle with ad libitum access to food (dry pellets of a fixed formulation diet for laboratory rats and mice fortified with vitamins and minerals to meet the requirements of breeding animals after the diet is autoclaved or irradiated, supplied by Speciality Feeds, Western Australia) and water. Age groups investigated (at treatment completion) were time mated pregnant females at E19 (350-400g body weight), postnatal pups at P4 and non-pregnant female adults (175-230g body weight). E19 was chosen because this is a stage of development when adequate volumes of blood and CSF can be obtained for analysis from fetal rats without pooling ( [Dziegielewska et al., 1981]) and individual pups can be injected intraperitoneally while still inside the uterine horn and kept viable for periods of time. P4 was chosen because its stage of brain development is similar to that of very prematurely born but viable human infants of 22–24 weeks gestation ( [Clancy et al., 2001]). Animal numbers were based on previous experience of such experiments and were the minimum number required to detect a significant difference between groups at P <0.05.
# Drug doses. Drug doses were selected based on use in clinical practice ( [Australian Medicines Handbook, 2019]) and adjusted for body weight.
# as §1, §2, §3
# For adult and newborn (P4) experiments, animals were terminally anaesthetized using inhaled isofluorane (IsoFlo 100% w/w, Abbott Laboratories).
# [4] = passive marker, E19, 60-minute, separate experimentation
# [5] = passive marker, E19, 30 minutes after i.p. injection
# [6] = passive marker, P4, 30 minutes after i.p. injection
# [7] = passive marker, adults, 30 minutes after i.p. injection
# [8] = E19 fetuses, acute, 30 min - […] after administration
# [9] = E19 fetuses, chronic (twice daily over five days), 30 min - […] after final dose
# [10] = P4, chronic i.p. (twice daily over five days), 30 min after final dose
# [11] = adult, chronic i.p. (twice daily over five days), 30 min after final dose
smiles,measurement,setting,value
C[C@H]1O[C@@H](O[C@H]2[C@@H](O)C[C@H](O[C@H]3[C@@H](O)C[C@H](O[C@H]4CC[C@@]5(C)[C@H](CC[C@@H]6[C@@H]5C[C@@H](O)[C@]5(C)[C@@H](C7=CC(=O)OC7)CC[C@]65O)C4)O[C@@H]3C)O[C@@H]2C)C[C@H](O)[C@@H]1O [Digoxin],restriction of transfer by the placenta,[1],about 60%
OCC(O)CO [Glycerol],CSF concentration ratio,[2]; [4],~100%
same,brain concentration ratio,[2]; [4],approximately 80%
same,Brain/Plasma Ratio,[2]; [5],46.8%
same,CSF/Plasma Ratio,[2]; [5],46.8%
same,Brain/Plasma Ratio,[2]; [6],82.2%
same,CSF/Plasma Ratio,[2]; [6],95%
same,Brain/Plasma Ratio,[2]; [7],85.5%
same,CSF/Plasma Ratio,[2]; [7],103.9%
same,"Fetal/Maternal plasma concentration ratio, range",[1],(68.1 - 134.7) %
CC(=O)Nc1ccc(O)cc1 [Paracetamol],transfer from maternal blood to fetal brain,"[3]; E19, acute",28%
same,Brain radioactivity level,[3]; [8],39.6 DPM/µg
same,CSF radioactivity level,[3]; [8],35.3 DPM/µl
same,Plasma radioactivity level,[3]; [8],57.8 DPM/µl
same,Brain radioactivity level,[3]; [9],146.1 DPM/µg
same,CSF radioactivity level,[3]; [9],119.0 DPM/µl
same,Plasma radioactivity level,[3]; [9],140.5 DPM/µl
same,Brain radioactivity level,"[3]; P4, acute i.p., 30 min",117.5 DPM/µg
same,CSF radioactivity level,"[3]; P4, acute i.p., 30 min",96.5 DPM/µl
same,Plasma radioactivity level,"[3]; P4, acute i.p., 30 min",193.6 DPM/µl
same,Brain radioactivity level,[3]; [10],84.4 DPM/µg
same,CSF radioactivity level,[3]; [10],71.0 DPM/µl
same,Plasma radioactivity level,[3]; [10],166.8 DPM/µl
same,transfer into maternal brain (brain/maternal blood),[3]; acute,30%
same,Brain radioactivity level,"[3]; adult, acute i.p., 30 min",27.3 DPM/µg
same,CSF radioactivity level,"[3]; adult, acute i.p., 30 min",25.4 DPM/µl
same,Plasma radioactivity level,"[3]; adult, acute i.p., 30 min",90.1 DPM/µl
same,Brain radioactivity level,[3]; [11],17.6 DPM/µg
same,CSF radioactivity level,[3]; [11],14.9 DPM/µl
same,Plasma radioactivity level,[3]; [11],83.3 DPM/µl
same,transfer into maternal brain (brain/maternal blood),[3]; chronic (five days of twice-daily dosing),21%
"OC[C@H]1O[C@@](CO)(O[C@H]2O[C@H](CO)[C@@H](O)[C@H](O)[C@H]2O)[C@@H](O)[C@@H]1O [sucrose, Sucrose]",CSF/Plasma Ratio,"[2]; rat, in vivo",very low
same,Brain/Plasma Ratio,"[2]; rat, in vivo, 0.5 h",very low
